Results taken from ChEMBL document CHEMBL3425462, “N-Arylmethylaminoquercitols, a new series of effective antidiabetic agents having α-glucosidase inhibition and antioxidant activity” (Bioorg Med Chem Lett, 2015).

Legend:
[1] = Inhibition of baker's yeast alpha-glucosidase; parameters: species or system Saccharomyces cerevisiae
[2] = Antioxidant activity of the compound assessed as DPPH radical scavenging activity at 5 mg/ml incubated in dark condition for 15 mins by colorimetric method relative to control; format: physicochemical; conditions: 0.25 h
[3] = Antioxidant activity of the compound assessed as DPPH radical scavenging activity incubated in dark condition for 15 mins by colorimetric method; format: physicochemical; conditions: 0.25 h
Saccharomyces cerevisiae = test: Inhibition of baker's yeast alpha-glucosidase at 10 mg/ml relative to control

SMILES	IC50 [1] [µM]	Activity [2] [%]	SC50 [3] [mM]	inhibition (Saccharomyces cerevisiae) [%]
O[C@@H]1[C@@H](O)[C@H](O)C[C@H](NCc2ccc(Br)cc2)[C@@H]1O	3140	< 20		
Oc1ccc(CN[C@H]2C[C@@H](O)[C@H](O)[C@@H](O)[C@H]2O)cc1	111		16.2	
OC(CN[C@H]1C[C@@H](O)[C@H](O)[C@@H](O)[C@H]1O)c1ccccc1 (stereo partly drawn)	3010	< 20		
COc1cc(C=O)ccc1O [VANILLIN]			4.9	
O[C@@H]1[C@@H](O)[C@H](O)C[C@H](NCc2cccnc2)[C@@H]1O		< 20		< 30
COc1cc(CN[C@H]2C[C@@H](O)[C@H](O)[C@@H](O)[C@H]2O)ccc1O	94.4		2.1	
N[C@H]1C[C@@H](O)[C@H](O)[C@@H](O)[C@H]1O	2890	< 20		
C[C@H]1O[C@H](O[C@H]2[C@H](O)[C@@H](O)[C@@H](O[C@H]3[C@H](O)[C@@H](O)C(O)O[C@@H]3CO)O[C@@H]2CO)[C@H](O)[C@@H](O)[C@@H]1N[C@H]1C=C(CO)[C@@H](O)[C@H](O)[C@H]1O (stereo partly drawn) [ACARBOSE]	480	< 20		
O=Cc1ccc(O)cc1 [4-HYDROXYBENZALDEHYDE]		< 20		
CC(C)(C)c1cc(CN[C@H]2C[C@@H](O)[C@H](O)[C@@H](O)[C@H]2O)cc(C(C)(C)C)c1O	89.1		0.4	
O[C@@H]1[C@@H](O)[C@H](O)C[C@H](NCc2cccs2)[C@@H]1O		< 20		< 30
CC(C)(C)c1cc(C=O)cc(C(C)(C)C)c1O			1.4	
O[C@@H]1[C@@H](O)[C@H](O)C[C@H](NCCc2ccccc2)[C@@H]1O	1350	< 20		
